One may read the melting point as the temperature, or range, at which the solid turns liquid.

Counter-ions that a name gives are not always drawn.

`CC(C)Oc1cc(C(O)CN2CCN(CCc3ccccc3)CC2)ccc1-c1cccc(N)n1` (stereo not shown) (as salt: hydrochloride) [Example 1, 1-[4-(6-AMINO-PYRIDIN-2-YL)-3-ISOPROPOXY-PHENYL]-2-(4-PHENETHYL-PIPERAZIN-1-YL)-ETHANOL] gave a melting point of 148 to 165 °C.

For the origin of these results see US20020151572A1, “PHARMACEUTICAL USES FOR NOS INHIBITORS” (priority 1998, published 2002).
